Earlier results in patent publication US7781642B2, “Animal model having a chimeric human liver and susceptible to human hepatitis C virus infection” (KMT Hepatech, Inc., priority 2000, dated 2010).

Assays:
HBV = conditions: post needle-stick exposure; cited from earlier work
HCV = HCV patients; cited from earlier work

## Hepatitis B Immunoglobulin [HBIg]
HBV
  Cases in which transmission of HBV was prevented: 80%

## interferon and ribavirin
HCV
  Sustained response rate: up to 40%
